Measurements from patent US20220235049A1, “SUBSTITUTED PYRROLO [2, 3-b] PYRIDINE AND PYRAZOLO [3,4-b] PYRIDINE DERIVATIVES AS PROTEIN KINASE INHIBITORS” (Fochon Pharmaceuticals, Ltd., priority 2019, published 2022).
Like-named read-outs stand apart in the source and are kept apart here. Values belong to the molecule of their own block, whether it stands above or below them.

Experiments:
BTK (C481S) = target: T1, BTK (C481S) (Homo sapiens, UniProt Q06187, C481S); test: Kinase assay of BTK (C481S), [33P]-ATP filter-binding, at Reaction Biology Corporation; type: biochemical; details: 10 μM ATP, 20 min preincubation, 120 min reaction
T1 construct: purchased SignalChem B10-12CH
Method: The kinase activity of BTK (C481S) was assayed at Reaction Biology Corporation. The substrate in the BTK (C481S) reaction, pEY (poly[Glu:Tyr] (4:1)) (Sigma, Cat. #P7244-250MG), was prepared in fresh reaction buffer (20 mM Hepes (pH 7.5), 10 mM MgCl2, 1 mM EGTA, 0.02% Brij35, 0.02 mg/ml BSA, 0.1 mM Na3VO4, 2 mM DTT, 1% DMSO). BTK(C481S) (SignalChem, Cat. #B10-12CH) was delivered into the substrate solution and mixed gently. The final concentrations of BTK (C481S) and the substrate in the reaction mixture were 6 nM and 0.2 mg/ml, respectively. Compounds were tested in 10-point concentration/response mode with 3-fold serial dilution steps starting at 1 μM.
Compounds in 100% DMSO were delivered into the kinase reaction mixture by acoustic liquid delivery technology (Echo550; nanoliter range) and incubated for 20 min at room temperature. 10 μM [^33P]-ATP (ATP: Sigma, Cat #: A7699; [^33P]-ATP: Hartmann Analytic, Cat #: SCF-301-12) was delivered into the reaction mixture to initiate the reaction. The mixture was incubated for 120 min at room temperature. Radioactivity was detected utilizing a proprietary filter-binding method. Kinase activity data were expressed as the percent remaining kinase activity in test samples compared to vehicle (DMSO) reactions. IC50 values were obtained using GraphPad Prism software.
Select compounds prepared as described above were assayed according to the biological procedures described herein.

DOHH2 cells = test: Cell proliferation assay in DOHH2 cells (MTS); type: cell-based
How it was run: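 DOHH2 cells at 5000/well were treated with compound at 1.5–10000 nM for 120 h at 37 °C, as a proxy for BTK inhibition. Proliferation was read by MTS for 2 h, stopped with SDS, and absorbance measured at 490 nm with 650 nm reference; IC50 was fitted from the curve.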

[1] = Pharmacokinetics in male Sprague-Dawley rats; type: in vivo; details: rat; for Cmax: read-out: Cmax/C0; for MRT last: read-out: MRT0-t
Method: The purpose of this study was to determine the pharmacokinetics of Example 71 and Example 75 in male Sprague-Dawley rats (Supplied by Beijing Vital River Laboratory Animal Technology Co., Ltd.).
Animals in Group 1 were administered with Example 71 by single intravenous bolus injection at 1 mg/kg, which was formulated in 60% Phosal 50 PG (Lipoid, Batch #368315-3180028/009): 30% PEG400 (Sigma, Batch #MKCH6281): 10% Ethanol (Merck, Batch #K48244883634) at 1 mg/mL as a solution. Animals in Group 2 were administered with Example 71 by single oral gavage (PO) administration at 5 mg/kg, which was formulated in 60% Phosal 50 PG (Lipoid, Batch #368315-3180028/009): 30% PEG400 (Sigma, Batch #MKCH6281): 10% Ethanol (Merck, Batch #K48244883634) at 1 mg/mL as a solution. Blood samples were collected at 0.083, 0.25, 0.5, 1, 2, 4, 8, 12 and 24 hours post-dose. Concentrations of Example 71 in plasma were determined by LC/MS/MS (LC: Waters UPLC; MS: API4000).
Animals in Group 3 were administered with Example 75 by single intravenous bolus injection at 2 mg/kg, which was formulated in 10% DMSO (Sigma, Batch #LPC0S181): 60% PEG400 (Sigma, Batch #MKCH6281): 30% water at 2 mg/mL as a solution. Animals in Group 4 were administered with Example 75 by single oral gavage (PO) administration at 10 mg/kg, which was formulated in 10% DMSO (Sigma, Batch #LPC0S181): 60% PEG400 (Sigma, Batch #MKCH6281): 30% water at 2 mg/mL as a solution. Blood samples were collected at 0.083, 0.25, 0.5, 1, 2, 4, 8, 12 and 24 hours post-dose. Concentrations of Example 75 in plasma were determined by LC/MS/MS (LC: Waters UPLC; MS: Triple Quad 6500 plus).

[2] = male, Sprague-Dawley, plasma, iv, 2 mg/kg
[3] = male, Sprague-Dawley, plasma, po, 10 mg/kg

T1 sequence (Q06187 whole entry C481S): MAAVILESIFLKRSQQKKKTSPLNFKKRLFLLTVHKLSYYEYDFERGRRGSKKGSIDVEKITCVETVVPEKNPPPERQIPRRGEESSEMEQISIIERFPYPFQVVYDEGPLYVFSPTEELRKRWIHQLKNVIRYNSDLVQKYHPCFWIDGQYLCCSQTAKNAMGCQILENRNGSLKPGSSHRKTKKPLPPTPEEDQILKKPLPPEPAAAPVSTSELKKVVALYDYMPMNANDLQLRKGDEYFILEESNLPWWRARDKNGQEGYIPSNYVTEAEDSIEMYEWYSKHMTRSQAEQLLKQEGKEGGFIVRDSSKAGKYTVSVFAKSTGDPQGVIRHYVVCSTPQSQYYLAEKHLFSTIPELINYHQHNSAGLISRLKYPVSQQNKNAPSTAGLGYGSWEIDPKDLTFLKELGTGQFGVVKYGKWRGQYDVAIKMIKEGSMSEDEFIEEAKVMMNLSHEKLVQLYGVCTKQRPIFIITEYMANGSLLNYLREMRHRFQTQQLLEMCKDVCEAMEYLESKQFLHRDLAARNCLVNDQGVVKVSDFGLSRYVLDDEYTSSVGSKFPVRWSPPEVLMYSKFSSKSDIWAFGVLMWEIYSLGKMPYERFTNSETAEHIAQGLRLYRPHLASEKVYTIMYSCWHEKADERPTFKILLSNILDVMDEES

IC50 (BTK (C481S)): 1 nM
Structure (SMILES): CCOc1cnc2[nH]cc(C(=O)c3ccc(Oc4ccccc4F)cc3)c2c1N[C@@H]1CC[C@@H](CO)OC1 [Example 63, (5-ethoxy-4-(((3R,6S)-6-(hydroxymethyl)tetrahydro-2H-pyran-3-yl)amino)-1H-pyrrolo[2,3-b]pyridin-3-yl)(4-(2-fluorophenoxy)phenyl)methanone]
IC50 (DOHH2 cells; Homo sapiens, DOHH-2, 120 h): 1 nM

IC50 (BTK (C481S)): 0.959 nM
Structure (SMILES): CCOc1cnc2[nH]cc(C(=O)c3ccc(Oc4ccccc4)cc3C)c2c1N[C@@H]1CC[C@@H](CO)OC1 [Example 127, (5-ethoxy-4-(((3R,6S)-6-(hydroxymethyl)tetrahydro-2H-pyran-3-yl)amino)-1H-pyrrolo[2,3-b]pyridin-3-yl)(2-methyl-4-phenoxyphenyl)methanone]
IC50 (DOHH2 cells; Homo sapiens, DOHH-2, 120 h): 1 nM

IC50 (BTK (C481S)): 0.455 nM
Structure (SMILES): CCOc1cnc2[nH]cc(C(=O)c3ccc(Oc4ccccc4)cc3F)c2c1N[C@@H]1CC[C@@H](CO)OC1 [Example 176, (5-ethoxy-4-(((3R,6S)-6-(hydroxymethyl)tetrahydro-2H-pyran-3-yl)amino)-1H-pyrrolo[2,3-b]pyridin-3-yl)(2-fluoro-4-phenoxyphenyl)methanone]
IC50 (DOHH2 cells; Homo sapiens, DOHH-2, 120 h): 1 nM

IC50 (BTK (C481S)): 1.12 nM
Structure (SMILES): COc1cnc2[nH]cc(C(=O)c3ccc(Oc4ccccc4)cc3Cl)c2c1N[C@@H]1CC[C@@H](CO)OC1 [Example 27, (2-chloro-4-phenoxyphenyl)(4-(((3R,6S)-6-(hydroxymethyl)tetrahydro-2H-pyran-3-yl)amino)-5-methoxy-1H-pyrrolo[2,3-b]pyridin-3-yl)methanone]
IC50 (DOHH2 cells; Homo sapiens, DOHH-2, 120 h): 1 nM

IC50 (BTK (C481S)): 0.972 nM
Structure (SMILES): CCOc1cnc2[nH]cc(C(=O)c3ccc(Oc4ccccc4)cc3Cl)c2c1N[C@@H]1CC[C@@H](CO)OC1 [Example 128, (2-chloro-4-phenoxyphenyl)(5-ethoxy-4-(((3R,6S)-6-(hydroxymethyl)tetrahydro-2H-pyran-3-yl)amino)-1H-pyrrolo[2,3-b]pyridin-3-yl)methanone]
IC50 (DOHH2 cells; Homo sapiens, DOHH-2, 120 h): 1 nM

Structure (SMILES): COc1cc(Oc2ccccc2F)cnc1C(=O)c1c[nH]c2nccc(N[C@@H]3CC[C@@H](CO)OC3)c12 [Example 110, (5-(2-fluorophenoxy)-3-methoxypyridin-2-yl)(4-(((3R,6S)-6-(hydroxymethyl)tetrahydro-2H-pyran-3-yl)amino)-1H-pyrrolo[2,3-b]pyridin-3-yl)methanone]
IC50 (DOHH2 cells; Homo sapiens, DOHH-2, 120 h): 95 nM

Structure (SMILES): CCOc1cnc2[nH]cc(C(=O)c3ccc(Oc4ccccc4F)cc3F)c2c1N[C@@]12CO[C@H](CO)C1C2 (single isomer, unassigned) [Example 172]
IC50 (DOHH2 cells; 120 h): 1 nM

Structure (SMILES): Cc1cc(Oc2cccc(F)c2)ccc1C(=O)c1c[nH]c2ncc(C#N)c(N[C@@H]3CC[C@@H](CO)OC3)c12 [Example 49, 3-(4-(3-fluorophenoxy)-2-methylbenzoyl)-4-(((3R,6S)-6-(hydroxymethyl)tetrahydro-2H-pyran-3-yl)amino)-1H-pyrrolo[2,3-b]pyridine-5-carbonitrile]
IC50 (DOHH2 cells; Homo sapiens, DOHH-2, 120 h): 100 nM

Structure (SMILES): O=C(c1ccc(Oc2ccccc2)cc1Cl)c1c[nH]c2ncc(F)c(N[C@@H]3CC[C@@H](CO)OC3)c12 [Example 6, (2-chloro-4-phenoxyphenyl)(5-fluoro-4-(((3R,6S)-6-(hydroxymethyl)tetrahydro-2H-pyran-3-yl)amino)-1H-pyrrolo[2,3-b]pyridin-3-yl)methanone]
IC50 (DOHH2 cells; Homo sapiens, DOHH-2, 120 h): 89 nM

Structure (SMILES): COc1cnc2[nH]cc(C(=O)c3ccc(Oc4ccccc4F)cc3C)c2c1N[C@@]12CO[C@H](CO)C1C2 (single isomer, unassigned) [Example 167]
IC50 (DOHH2 cells; 120 h): 18 nM

Structure (SMILES): O=C(c1ccc(Oc2ccccc2F)cc1Cl)c1c[nH]c2ncc(Cl)c(N[C@@H]3CC[C@@H](CO)OC3)c12 [Example 100, (5-chloro-4-(((3R,6S)-6-(hydroxymethyl)tetrahydro-2H-pyran-3-yl)amino)-1H-pyrrolo[2,3-b]pyridin-3-yl)(2-chloro-4-(2-fluorophenoxy)phenyl)methanone]
IC50 (DOHH2 cells; Homo sapiens, DOHH-2, 120 h): 67 nM

Structure (SMILES): O=C(c1ccc(Oc2c(F)cccc2F)cc1Cl)c1c[nH]c2ncc(Cl)c(N[C@@H]3CC[C@@H](CO)OC3)c12 [Example 189, (5-chloro-4-(((3R,6S)-6-(hydroxymethyl)tetrahydro-2H-pyran-3-yl)amino)-1H-pyrrolo[2,3-b]pyridin-3-yl)(2-chloro-4-(2,6-difluorophenoxy)phenyl)methanone]
IC50 (DOHH2 cells; Homo sapiens, DOHH-2, 120 h): 32 nM

Structure (SMILES): Cc1cc(Oc2ccccc2F)ccc1C(=O)c1c[nH]c2ncc(F)c(N[C@@]34CO[C@H](CO)C3C4)c12 (single isomer, unassigned) [Example 179]
IC50 (DOHH2 cells; Homo sapiens, DOHH-2, 120 h): 1 nM

Structure (SMILES): COc1cnc2[nH]cc(C(=O)c3c(F)cc(Oc4ccccn4)cc3F)c2c1N[C@@H]1CC[C@@H](CO)OC1 [Example 198, (2,6-difluoro-4-(pyridin-2-yloxy)phenyl)(4-(((3R,6S)-6-(hydroxymethyl)tetrahydro-2H-pyran-3-yl)amino)-5-methoxy-1H-pyrrolo[2,3-b]pyridin-3-yl)methanone]
IC50 (DOHH2 cells; Homo sapiens, DOHH-2, 120 h): 52 nM

AUC(0-inf) [1, 2]: 10200 ng·h/mL | AUC(0-t) [1, 2]: 10100 ng·h/mL | clearance [1, 2]: 3.33 mL/min/kg | half-life [1, 2]: 2.56 h | Cmax [1, 2]: 6350 ng/mL | MRT last [1, 2]: 2.43 h | Vd ([1]; male, Sprague-Dawley, plasma, iv, 2 mg/kg, read-out: Vdss): 0.489 L/kg | AUC(0-inf) [1, 3]: 29000 ng·h/mL | AUC(0-t) [1, 3]: 28900 ng·h/mL | Tmax [1, 3]: 2.83 h | half-life [1, 3]: 2.8 h | Cmax [1, 3]: 4140 ng/mL | MRT last [1, 3]: 5.58 h | F ([1]; po 10 mg/kg vs iv 2 mg/kg): 57.1%
Structure (SMILES): COc1cnc2[nH]cc(C(=O)c3ccc(Oc4ccccc4F)cc3F)c2c1N[C@@H]1CC[C@@H](CO)OC1 [Example 75, (2-fluoro-4-(2-fluorophenoxy)phenyl)(4-(((3R,6S)-6-(hydroxymethyl)tetrahydro-2H-pyran-3-yl)amino)-5-methoxy-1H-pyrrolo[2,3-b]pyridin-3-yl)methanone]
IC50 (DOHH2 cells; Homo sapiens, DOHH-2, 120 h): 1 nM

Structure (SMILES): COc1cnc2[nH]cc(C(=O)c3ccc(Oc4ccccc4)cc3C)c2c1N[C@@H]1CC[C@@H](CO)OC1 [Example 134, (4-(((3R,6S)-6-(hydroxymethyl)tetrahydro-2H-pyran-3-yl)amino)-5-methoxy-1H-pyrrolo[2,3-b]pyridin-3-yl)(2-methyl-4-phenoxyphenyl)methanone]
IC50 (DOHH2 cells; Homo sapiens, DOHH-2, 120 h): 1 nM

Structure (SMILES): Cc1cc(Oc2ccccc2)ccc1C(=O)c1c[nH]c2ncc(C#N)c(N[C@@]34COC(CO)[C@@H]3C4)c12 (single isomer, unassigned) [Example 20]
IC50 (DOHH2 cells; 120 h): 20 nM

Structure (SMILES): O=C(c1ccc(Oc2ccccc2)cc1F)c1c[nH]c2ncc(F)c(N[C@@H]3CC[C@@H](CO)OC3)c12 [Example 58, (5-fluoro-4-(((3R,6S)-6-(hydroxymethyl)tetrahydro-2H-pyran-3-yl)amino)-1H-pyrrolo[2,3-b]pyridin-3-yl)(2-fluoro-4-phenoxyphenyl)methanone]
IC50 (DOHH2 cells; Homo sapiens, DOHH-2, 120 h): 23 nM

Structure (SMILES): O=C(c1ccc(Oc2c(F)cccc2F)cc1Cl)c1c[nH]c2ncc(F)c(N[C@@H]3CC[C@@H](CO)OC3)c12 [Example 187, (2-chloro-4-(2,6-difluorophenoxy)phenyl)(5-fluoro-4-(((3R,6S)-6-(hydroxymethyl)tetrahydro-2H-pyran-3-yl)amino)-1H-pyrrolo[2,3-b]pyridin-3-yl)methanone]
IC50 (DOHH2 cells; Homo sapiens, DOHH-2, 120 h): 52 nM
